The target in test [1] is T1, c-Met kinase domain recombinant protein (Homo sapiens, UniProt P08581).
T1 construct: 50 μL diluted solution of c-Met kinase domain recombinant protein in reaction buffer was added to initiate the reaction
Kind of test: biochemical. The note with it: for inhibition at 10 µM: read-out: Average inhibition rate at 10 μM (%); for inhibition at 0.1 µM: read-out: Average inhibition rate at 0.1 μM (%); for inhibition at 1 µM: read-out: Average inhibition rate at 1 μM (%). The protocol: Enzymatic reaction substrate Poly(Glu,Tyr)4:1 was diluted to 20 μg/mL in potassium ion free PBS (10 mM sodium phosphate buffer, 150 mM NaCl, pH7.2-7.4), microplate was coated with this solution at 125 μL per well, and reacted at 37° C. for 12-16 hours. Liquid in wells was discarded, then the plate was washed 3 times for 5 minutes each with 200 μL per well of T-PBS (PBS containing 0.1% Tween-20).
Into each well was added 50 μL diluted ATP solution in reaction buffer (50 mM HEPES pH 7.4, 50 mM MgCl2, 0.5 mM MnCl2, 0.2 mM Na3VO4, 1 mM DTT), the final concentration was 5 μM. Test compound was diluted in DMSO to proper concentration, added at 1 μL per well or corresponding level of DMSO (negative control wells), then 49 μL diluted solution of c-Met kinase domain recombinant protein in reaction buffer was added to initiate the reaction, each test was setup with two wells of ATP free control. Reaction was performed in a 37° C. shaker (100 rpm) for 1 hour. The plate was washed three times with T-PBS. Primary antibody PY99 diluted solution was added at 100 μL per well, incubated in a 37° C. shaker for 0.5 hour.
The plate was washed three times with T-PBS. Goat anti mouse secondary antibody labeled with horseradish peroxidase was added at 100 μL per well, incubated in a 37° C. shaker for 0.5 hour. The plate was washed three times with T-PBS. […] Reaction was terminated by adding 50 μL per well of 2M H2SO4, the plate was read at 490 nm using a SPECTRA MAX 190 microplate reader with tunable wavelength.
(§1) Inhibition rate of the sample was calculated using the following equation: […]
IC50 was calculated by fitting the data for a four parameter fit using inhibition curve.

Test [2] addresses T1, c-Met kinase domain recombinant protein. Kind of test: biochemical. The note with it: read-out: Inhibition rate at 10 μM (%). The protocol:
Enzymatic reaction substrate Poly(Glu,Tyr)4:1 was diluted to 20 μg/mL in potassium ion free PBS (10 mM sodium phosphate buffer, 150 mM NaCl, pH7.2-7.4), microplate was coated with this solution at 125 μL per well, and reacted at 37° C. for 12-16 hours. Liquid in wells was discarded. Plate washing: the plate was washed 3 times for 5 minutes each with 200 μL per well of T-PBS (potassium ion free PBS containing 0.1% Tween-20).
Into each well was added 49 μL diluted ATP solution in reaction buffer (50 mM HEPES pH 7.4, 50 mM MgCl2, 0.5 mM MnCl2, 0.2 mM Na3VO4, 1 mM DTT), and 1 μL per well of compound to be tested was added, then 50 μL diluted solution of c-Met kinase domain recombinant protein in reaction buffer was added to initiate the reaction, each test was setup with two wells of ATP free control. Reaction was performed in a 37° C. shaker (100 rpm) for 1 hour. Liquid in the wells was discarded, and the plate was washed three times with T-PBS.
Antibody PY99 was added at 100 μL per well (the antibody was 1:500 diluted in T-PBS containing 5 mg/mL BSA), incubated in a 37° C. shaker for 0.5 hour. Liquid in the wells was discarded, and the plate was washed three times with T-PBS.
Goat anti mouse secondary antibody labeled with horseradish peroxidase was added at 100 μL per well (the antibody was 1:2000 diluted in T-PBS containing 5 mg/mL BSA), incubated in a 37° C. shaker for 0.5 hour. Liquid in the wells was discarded, and the plate was washed three times with T-PBS.
Reaction was terminated by adding 50 μL per well of 2M H2SO4, the plate was read at 490 nm using a VERSAmax microplate reader with tunable wavelength.
as §1

Each structure is given as a SMILES string. Like-named read-outs stand apart in the source and are kept apart here.

T1 sequence (P08581 1078-1345 limits assumed): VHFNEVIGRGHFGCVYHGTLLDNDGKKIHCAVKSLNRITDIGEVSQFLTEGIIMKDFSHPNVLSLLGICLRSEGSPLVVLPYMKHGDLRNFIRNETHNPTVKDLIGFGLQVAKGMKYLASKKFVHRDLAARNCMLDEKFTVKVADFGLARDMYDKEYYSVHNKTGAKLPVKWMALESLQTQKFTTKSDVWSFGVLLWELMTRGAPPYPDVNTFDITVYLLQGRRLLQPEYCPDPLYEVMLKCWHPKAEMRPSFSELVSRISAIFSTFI

`Cn1cc(-c2cnc3cnn(S(=O)(=O)c4ccccc4F)c3c2)cn1` [Compound 6, 1-(2-fluorobenzenesulfonyl)-6-[(1-methyl)-4-pyrazolyl]-1-H-pyrazolo[4,3-b]pyridine]: the inhibition at 10 µM in test [1] and in test [2] was 34.4% throughout.
For the compound `Cn1cc(-c2cnc3cnn(S(=O)(=O)c4ccc(F)cc4)c3c2)cn1` [Compound 7, 1-(4-fluorobenzenesulfonyl)-6-[(1-methyl)-4-pyrazolyl]-1-H-pyrazolo[4,3-b]pyridine], the inhibition at 10 µM in test [1] and in test [2] was 40.7% in each case.
Consider `Cn1cc(-c2cnc3cnn(S(=O)(=O)c4ccccc4C#N)c3c2)cn1` [Compound 8, 1-(2-cyanobenzenesulfonyl)-6-[(1-methyl)-4-pyrazolyl]-1-H-pyrazolo[4,3-b]pyridine], for which, in test [1], the inhibition at 0.1 µM turned out to be 9.2%, the inhibition at 1 µM was 51.6% and the inhibition at 10 µM worked out at 72.4%. Besides, in test [2], the inhibition at 10 µM was determined as 72.4%.
For `Cn1cc(-c2cnc3cnn(S(=O)(=O)c4ccc([N+](=O)[O-])cc4)c3c2)cn1` [Compound 9, 1-(4-nitrobenzenesulfonyl)-6-[(1-methyl)-4-pyrazolyl]-1-H-pyrazolo[4,3-b]pyridine], the inhibition at 10 µM in test [1] and in test [2] was 22% each time.
As to `COc1ccc(S(=O)(=O)n2ncc3ncc(-c4cnn(C)c4)cc32)cc1OC` [Compound 10, 1-(3,4-dimethoxybenzenesulfonyl)-6-[(1-methyl)-4-pyrazolyl]-1-H-pyrazolo[4,3-b]pyridine], the inhibition at 10 µM in test [1] and in test [2] was 37.9% throughout.
Turning to `Cc1noc(C)c1S(=O)(=O)n1ncc2ncc(-c3cnn(C)c3)cc21` [Compound 11, 1-(3,5-dimethylisoxazolesulfonyl)-6-[(1-methyl)-4-pyrazolyl]-1-H-pyrazolo[4,3-b]pyridine], the inhibition at 10 µM in test [1] and in test [2] was 48.6% throughout.
Take `Cn1cc(-c2cnc3cnn(S(=O)(=O)c4ccc(F)cc4F)c3c2)cn1` [Compound 12, 1-(2,4-difluorobenzenesulfonyl)-6-[(1-methyl)-4-pyrazolyl]-1-H-pyrazolo[4,3-b]pyridine]: the inhibition at 10 µM in test [1] and in test [2] was 37.5% in each case.
On to `CC(=O)c1ccc(S(=O)(=O)n2ncc3ncc(-c4cnn(C)c4)cc32)cc1` [Compound 13, 1-(4-acetylbenzenesulfonyl)-6-[(1-methyl)-4-pyrazolyl]-1-H-pyrazolo[4,3-b]pyridine], for which, in test [1], the inhibition at 0.1 µM stood at 28.5%, the inhibition at 1 µM turned out to be 45.3% and the inhibition at 10 µM was determined as 52.6%. Moreover, the inhibition at 10 µM in test [2] came out at 52.6%.
On to `Cn1cc(-c2cnc3cnn(S(=O)(=O)c4ccccc4C(F)(F)F)c3c2)cn1` [Compound 14, 1-(2-trifluoromethylbenzenesulfonyl)-6-[(1-methyl)-4-pyrazolyl]-1-H-pyrazolo[4,3-b]pyridine], for which, in test [1], the inhibition at 0.1 µM is 39.9%, the inhibition at 1 µM was 54.7% and the inhibition at 10 µM is 74.3%. Also, in test [2], the inhibition at 10 µM came out at 74.3%.
With `Cn1cc(-c2cnc3cnn(S(=O)(=O)c4ccc(C(F)(F)F)cc4)c3c2)cn1` [Compound 15, 1-(4-trifluoromethylbenzenesulfonyl)-6-[(1-methyl)-4-pyrazolyl]-1-H-pyrazolo[4,3-b]pyridine], the inhibition at 10 µM in test [1] and in test [2] was 40.6% each time.
For the compound `Cn1cc(-c2cnc3cnn(S(=O)(=O)c4cccc(C(F)(F)F)c4)c3c2)cn1` [Compound 16, 1-(3-trifluoromethylbenzenesulfonyl)-6-[(1-methyl)-4-pyrazolyl]-1-H-pyrazolo[4,3-b]pyridine], in test [1], the inhibition at 0.1 µM stood at 25.2%, the inhibition at 1 µM came to 56.1% and the inhibition at 10 µM stood at 73.2%. In addition, the inhibition at 10 µM in test [2] was found to be 73.2%.
In the case of `COc1ccc(S(=O)(=O)n2ncc3ncc(-c4cnn(C)c4)cc32)cc1` [Compound 17, 1-(4-methoxybenzenesulfonyl)-6-[(1-methyl)-4-pyrazolyl]-1-H-pyrazolo[4,3-b]pyridine], the inhibition at 10 µM in test [1] and in test [2] was 49.9% each time.
With `Cn1cc(-c2cnc3cnn(S(=O)(=O)c4cnn5cccnc45)c3c2)cn1` [Example 22, 1-(pyrazolo[1,5-a]pyrimidine-3-sulfonyl)-6-[(1-methyl)-4-pyrazolyl]-1-H-pyrazolo[4,3-b]pyridine], in test [1], the IC50 worked out at 39.7 ± 6.3 nM, the inhibition at 0.1 µM amounted to 24.9%, the inhibition at 1 µM was 58.7% and the inhibition at 10 µM is 69.5%. The inhibition at 10 µM in test [2] amounted to 69.5%.
In the case of `Cn1cc(-c2cnc3cnn(S(=O)(=O)c4cnc5ncccn45)c3c2)cn1` [Example 23, 1-(imidazo[1,2-a]pyrimidine-3-sulfonyl)-6-[(1-methyl)-4-pyrazolyl]-1-H-pyrazolo[4,3-b]pyridine], in test [1], the IC50 came out at 3.7 ± 1.4 nM, the inhibition at 0.1 µM is 26.9%, the inhibition at 1 µM stood at 52.7% and the inhibition at 10 µM came out at 65.1%. For the same compound, in test [2], the inhibition at 10 µM was 65.1%.
Regarding `Cn1cc(-c2cnc3cnn(S(=O)(=O)c4cnc5ccc(C(F)(F)F)cn45)c3c2)cn1` [Example 26, 1-[(6-trifluoromethyl-imidazo[1,2-a]pyridine)-3-sulfonyl]-6-[(1-methyl)-4-pyrazolyl]-1-H-pyrazolo[4,3-b]pyridine], in test [1], the IC50 turned out to be 33.9 ± 6.9 nM, the inhibition at 0.1 µM amounted to 60%, the inhibition at 1 µM turned out to be 63.8% and the inhibition at 10 µM was found to be 65.2%. For the same compound, the inhibition at 10 µM in test [2] was found to be 65.2%.
Take `O=S(=O)(c1cnc2ccccn12)n1ncc2ncc(-c3cccnc3)cc21` [Example 30, 1-(imidazo[1,2-a]pyridine-3-sulfonyl)-6-(3-pyridinyl)-1-H-pyrazolo[4,3-b]pyridine]: in test [1], the inhibition at 0.1 µM turned out to be 48.3%, the inhibition at 1 µM turned out to be 59.7% and the inhibition at 10 µM came to 71%. Further, in test [2], the inhibition at 10 µM was found to be 71%.
Regarding `O=S(=O)(c1cnc2ccccn12)n1ncc2ncc(-c3ccoc3)cc21` [Example 31, 1-(imidazo[1,2-a]pyridine-3-sulfonyl)-6-(3-furanyl)-1-H-pyrazolo[4,3-b]pyridine], in test [1], the inhibition at 0.1 µM was determined as 59%, the inhibition at 1 µM amounted to 64.1% and the inhibition at 10 µM was 69%. The inhibition at 10 µM in test [2] is 69%.
As to `O=S(=O)(c1cnc2ccccn12)n1ncc2ncc(-c3ccc(C(F)(F)F)cc3)cc21` [Example 32, 1-(imidazo[1,2-a]pyridine-3-sulfonyl)-6-(4-trifluoromethylphenyl)-1-H-pyrazolo[4,3-b]pyridine], in test [1], the inhibition at 0.1 µM was 52.9%, the inhibition at 1 µM is 52% and the inhibition at 10 µM came out at 64.2%. For the same compound, the inhibition at 10 µM in test [2] worked out at 64.2%.
`O=S(=O)(c1cnc2ccccn12)n1ncc2ncc(-c3ccc4ccccc4c3)cc21` [Example 33, 1-(imidazo[1,2-a]pyridine-3-sulfonyl)-6-(2-naphthyl)-1-H-pyrazolo[4,3-b]pyridine]: in test [1], the inhibition at 0.1 µM was found to be 39.9%, the inhibition at 1 µM worked out at 47.3% and the inhibition at 10 µM stood at 53.7%. Moreover, in test [2], the inhibition at 10 µM stood at 53.7%.
For the compound `CS(=O)(=O)Nc1ccc(-c2cnc3cnn(S(=O)(=O)c4cnc5ccccn45)c3c2)cc1` [Example 34, 1-(imidazo[1,2-a]pyridine-3-sulfonyl)-6-(4-methylsulfamidophenyl)-1-H-pyrazolo[4,3-b]pyridine], in test [1], the inhibition at 0.1 µM came to 31.3%, the inhibition at 1 µM stood at 49.3% and the inhibition at 10 µM is 61.3%. For the same compound, the inhibition at 10 µM in test [2] amounted to 61.3%.

For the origin of these results see US9988381B2, “Five-member-heterocycle fused pyridine compounds, method of producing the same, and use thereof” (SHANGHAI INSTITUTE OF MATERIA MEDICA, CHINESE ACADEMY OF …, priority 2013, dated 2018).
